Measurements: patent publication US4416826A, “Peresters and use thereof” (priority 1980, dated 1983)

Assays:
[1] = Photopolymerization of styrene, radical efficiency; details: chloroform, [I] 5.00 × 10^-3 M
Description: (§1) Commercial styrene is washed three times with ice cold 2% NaOH solution followed by washing (four times) with distilled water. The styrene is dried over anhydrous CaCl2 and distilled under vacuum before use. The middle fraction of the distillate is used for polymerization. Solvents are purified by conventional means and distilled under N2 atmosphere.
(§2) The irradiations are carried out in degassed (three cycles of freeze-thaw under high vacuum) sealed 15-mm Pyrex tubes. The tubes are placed in a merry-go-round with a filtered UV source of 366 nm at the center and the yield of polymer is measured (below 10% conversion) gravimetrically. In all of the cases, tubes of the same size and same volume of solution are used. Number-average molecular weights of the purified polymers are determined by viscometry in a benzene solution. After the polymerization, an aliquot of 0.5 ml from each reaction tube is placed in 2-ml volumetric flasks. The solvent and excess monomer are evaporated under high vacuum for several hours. The remaining flask contents are dissolved in 0.5 ml of benzene or chloroform and the polymer is precipitated by adding 0.5 ml of n-hexane. The solution then is centrifuged and the IR of the centrifugate is measured to determine undecomposed perester. All of the above procedures are carried out as far as possible in the dark. The light intensity is measured by benzophenone-benzhydrol actinometry and observed to be Io =6.56×10^17 quanta/min on the average. The temperature of the tubes is maintained at 30° C.
The efficiency of the radicals to initiate polymerization, f, in the absence of any appreciable amount of chain transfer, can be defined as [formula] assuming bimolecular termination by the combination of two growing chains only [formula] whereas kd =rate of decomposition of perester in mol/liter sec. in the absence of monomer (a function of light intensity).

Solubility in benzene = type: physicochemical
[2] = Relative quantum yield of initiator decomposition in presence of monomer (IR at 1770 cm^-1); type: physicochemical; details: for relative quantum yield φrel of decomposition: chloroform, initiator 2 × 10^-2 M
Description: as §1, §2
The decomposition of the initiator employed is followed by IR at 1770 cm^-1 (caused by the carbonyl adjacent to the peroxy group) against an appropriate solvent blank. The initiators employed are .rho.-benzoylperoxybenzoic acid tert-butylester (Ia) and prior art benzophenone peroxide. In addition, the above procedure is repeated except that methyl methacrylate is employed in place of styrene. Table IX below illustrates the relative quantum yield for the decomposition of the initiators in the recited amounts of monomers, assuming that the quantum yield for the decomposition of the perester and peroxide in the absence of any monomer is one.

[3] = End group analysis of polystyrene by IR
Description: The polystyrene obtained from each of the above polymerizations is purified by repeated (four times) precipitation from benzene solution with methanol. Before each precipitation, the benzene solution is centrifuged to remove any insoluble material. The finely powdered polymer is filtered and dried under vacuum for two days. Known amounts of polymer are dissolved in benzene and the IR is taken (2000-1500 cm^-1) against benzene in 0.1-mm NaCl cells. The peaks at 1730 and 1670 cm^-1 for the carbonyl groups, caused by ester and benzophenones, respectively, are measured. […] The extinction coefficient of the carbonyl group at 1730 cm^-1 is compared with that of authenticated methyl benzoylbenzoate, which is used as a model to measure the concentration of the ester end groups in the polymer. From the concentration of the ester and the extinction resulting from the carbonyl group in the benzophenone, the absorption caused by the benzophenone that is present as the ester can be calculated. The value is subtracted from the absorption obtained at 1670 cm^- 1 for the polymer. From the resulting absorption, the concentration of benzophenone alone is estimated from the known extinction of benzophenone at that wavelength.

[4] = Exp. 7: chloroform, [I] 5.0 × 10^-3 M, styrene 3.61 M
[5] = Exp. 8: chloroform, [I] 4.52 × 10^-3 M, styrene 4.33 M
[6] = Exp. 9: chloroform, [I] 4.94 × 10^-3 M, styrene 5.88 M

## O=C(OOC(=O)c1ccc(C(=O)c2ccccc2)cc1)c1ccc(C(=O)c2ccccc2)cc1 [Peroxide, reference compound]
[1]; [M] 3.61 M
  Average degree of polymerization: 159.6
  Radical efficiency f: 0.33
  Rp × 10^5: 1.07 mole/liter sec
  φrel: 0.08
[1]; [M] 4.33 M
  Average degree of polymerization: 155.8
  Radical efficiency f: 0.33
  Rp × 10^5: 1.04 mole/liter sec
  φrel: 0.08
[1]; [M] 5.88 M
  Average degree of polymerization: 372.9
  Radical efficiency f: 0.26
  Rp × 10^5: 1.72 mole/liter sec
  φrel: 0.08
Solubility in benzene
  solubility in benzene: insoluble in benzene
[2]
  effect of styrene on quantum yield of decomposition, in words: the quenching effect being greater with the peroxide than the perester
[2]; styrene 2.18 M
  relative quantum yield φrel of decomposition: 0.05
[2]; styrene 2.23 M
  relative quantum yield φrel of decomposition: 0.06
[2]; styrene 4.26 M
  relative quantum yield φrel of decomposition: 0.08
[3]
  total number of benzophenones as end groups per chain, in words: almost two
[3]; [4]
  end groups per chain, Benzophenone: 0.54
  end groups per chain, Benzophenone as ester: 1.29
  end groups per chain, Total: 1.83
[3]; [5]
  end groups per chain, Benzophenone: 0.62
  end groups per chain, Benzophenone as ester: 1.30
  end groups per chain, Total: 1.92
[3]; [6]
  end groups per chain, Benzophenone: 0.72
  end groups per chain, Benzophenone as ester: 1.36
  end groups per chain, Total: 2.08
